ChEMBL document CHEMBL3132858, “6-Alkyl-, 6-aryl- or 6-hetaryl-7-deazapurine ribonucleosides as inhibitors of human or MTB adenosine kinase and potential antimycobacterial agents” (Medchemcomm, 2013)

The compounds below were run on Mycobacterium tuberculosis (assay: Antimycobacterial activity against Mycobacterium bovis BCG assessed as inhibition of microbial growth after 120 hrs by MTT assay). Details: variant bovis BCG.
Type: functional, organism-based
`OC[C@H]1O[C@@H](n2ccc3c(-c4cccc5c4oc4ccccc45)ncnc32)[C@H](O)[C@@H]1O` gave an IC50 greater than 100 µM. `OC[C@H]1O[C@@H](n2ccc3c(-c4cc5ccccc5[nH]4)ncnc32)[C@H](O)[C@@H]1O` was tested, and the IC50 was greater than 100 µM. `OC[C@H]1O[C@@H](n2ccc3c(-c4cccc5c4sc4ccccc45)ncnc32)[C@H](O)[C@@H]1O` was tested, and the IC50 was greater than 100 µM. In the case of `OC[C@H]1O[C@@H](n2ccc3c(-c4cccc5c4Oc4ccccc4S5)ncnc32)[C@H](O)[C@@H]1O`, the IC50 is reported as greater than 100 µM. In the case of `OC[C@H]1O[C@@H](n2cc(Cl)c3c(-c4ccc(F)cc4)ncnc32)[C@H](O)[C@@H]1O`, the IC50 is reported as 89.6 µM. Compound `CCCCCCCCCCCCCCCCCCOP(=O)(O)OC[C@H]1O[C@@H](n2ccc3c(-c4ccccc4)ncnc32)[C@H](O)[C@@H]1O` has an IC50 greater than 100 µM. Work on `CCCCCCCCCCCCCCCCCCOP(=O)(O)OC[C@H]1O[C@@H](n2ccc3c(-c4ccco4)ncnc32)[C@H](O)[C@@H]1O` yielded an IC50 greater than 100 µM. In the case of `CCCCCCCCCCCCCCCCCCOP(=O)(O)OC[C@H]1O[C@@H](n2ccc3c(-c4ccoc4)ncnc32)[C@H](O)[C@@H]1O`, the IC50 is reported as 56.6 µM. `CCCCCCCCCCCCCCCCCCOP(=O)(O)OC[C@H]1O[C@@H](n2ccc3c(-c4ccsc4)ncnc32)[C@H](O)[C@@H]1O` gave an IC50 of 82.8 µM. For `CCCCCCCCCCCCCCCCCCOP(=O)(O)OC[C@H]1O[C@@H](n2ccc3c(-c4cc5ccccc5o4)ncnc32)[C@H](O)[C@@H]1O`, the IC50 was 93.4 µM. `OC[C@H]1O[C@@H](n2ccc3c(-c4cc5ccccc5o4)ncnc32)[C@H](O)[C@@H]1O` was tested, and the IC50 was greater than 100 µM. Work on `OC[C@H]1O[C@@H](n2ccc3c(-c4cc5ccccc5s4)ncnc32)[C@H](O)[C@@H]1O` yielded an IC50 greater than 100 µM. For `OC[C@H]1O[C@@H](n2cc(F)c3c(-c4cccs4)ncnc32)[C@H](O)[C@@H]1O`, the IC50 was greater than 100 µM. Work on `OC[C@H]1O[C@@H](n2cc(F)c3c(-c4cc[nH]c4)ncnc32)[C@H](O)[C@@H]1O` yielded an IC50 greater than 100 µM. Compound `OC[C@H]1O[C@@H](n2cc(Cl)c3c(-c4ccsc4)ncnc32)[C@H](O)[C@@H]1O` has an IC50 of 99.6 µM. `OC[C@H]1O[C@@H](n2cc(Cl)c3c(-c4ccccc4)ncnc32)[C@H](O)[C@@H]1O` was tested, and the IC50 was greater than 100 µM. `OC[C@H]1O[C@@H](n2ccc3c(Cc4ccccc4)ncnc32)[C@H](O)[C@@H]1O` was tested, and the IC50 was greater than 100 µM. For `OC[C@H]1O[C@@H](n2ccc3c(-c4ccoc4)ncnc32)[C@H](O)[C@@H]1O`, the IC50 was 83.7 µM. For `OC[C@H]1O[C@@H](n2cc(F)c3c(-c4ccco4)ncnc32)[C@H](O)[C@@H]1O`, the IC50 was 73.2 µM. Compound `OC[C@H]1O[C@@H](n2cc(F)c3c(-c4c[nH]cn4)ncnc32)[C@H](O)[C@@H]1O` has an IC50 of 11.7 µM. `OC[C@H]1O[C@@H](n2cc(F)c3c(-c4ccoc4)ncnc32)[C@H](O)[C@@H]1O` showed an IC50 of 91.2 µM. For `OC[C@H]1O[C@@H](n2cc(F)c3c(-c4nccs4)ncnc32)[C@H](O)[C@@H]1O`, the IC50 was 69 µM. Compound `OC[C@H]1O[C@@H](n2cc(F)c3c(-c4ccsc4)ncnc32)[C@H](O)[C@@H]1O` has an IC50 greater than 100 µM. `OC[C@H]1O[C@@H](n2ccc3c(-c4ccccn4)ncnc32)[C@H](O)[C@@H]1O` was tested, and the IC50 was 38.2 µM. `OC[C@H]1O[C@@H](n2cc(Cl)c3c(-c4ccoc4)ncnc32)[C@H](O)[C@@H]1O` showed an IC50 of 97.1 µM. In the case of `OC[C@H]1O[C@@H](n2ccc3c(-c4c[nH]cn4)ncnc32)[C@H](O)[C@@H]1O`, the IC50 is reported as 15.6 µM. With `OC[C@H]1O[C@@H](n2ccc3c(-c4ccc[nH]4)ncnc32)[C@H](O)[C@@H]1O` the IC50 was 56.4 µM. Work on `OC[C@H]1O[C@@H](n2ccc3c(-c4ccc(F)cc4)ncnc32)[C@H](O)[C@@H]1O` yielded an IC50 of 93.8 µM. `OC[C@H]1O[C@@H](n2ccc3c(-c4ccsc4)ncnc32)[C@H](O)[C@@H]1O` was tested, and the IC50 was 81 µM. With `OC[C@H]1O[C@@H](n2ccc3c(-c4ccco4)ncnc32)[C@H](O)[C@@H]1O` the IC50 was greater than 100 µM. In the case of `OC[C@H]1O[C@@H](n2ccc3c(-c4ccn[nH]4)ncnc32)[C@H](O)[C@@H]1O`, the IC50 is reported as 91.1 µM. With `COc1ccc(-c2ncnc3c2ccn3[C@@H]2O[C@H](CO)[C@@H](O)[C@H]2O)cc1` the IC50 was 56.9 µM. In the case of `OC[C@H]1O[C@@H](n2ccc3c(-c4nccs4)ncnc32)[C@H](O)[C@@H]1O`, the IC50 is reported as 80.5 µM. Work on `OC[C@H]1O[C@@H](n2ccc3c(-c4ccc[se]4)ncnc32)[C@H](O)[C@@H]1O` yielded an IC50 greater than 100 µM. In the case of `OCc1ncnc2c1ccn2[C@@H]1O[C@H](CO)[C@@H](O)[C@H]1O`, the IC50 is reported as 32.6 µM. `OC[C@H]1O[C@@H](n2ccc3c(-c4cccnc4)ncnc32)[C@H](O)[C@@H]1O` was tested, and the IC50 was greater than 100 µM. `OC[C@H]1O[C@@H](n2ccc3c(-c4cn[nH]c4)ncnc32)[C@H](O)[C@@H]1O` showed an IC50 greater than 100 µM. In the case of `OC[C@H]1O[C@@H](n2ccc3c(-c4cc[nH]c4)ncnc32)[C@H](O)[C@@H]1O`, the IC50 is reported as 98.2 µM. `CCc1ncnc2c1ccn2[C@@H]1O[C@H](CO)[C@@H](O)[C@H]1O` gave an IC50 of 88.8 µM. `OC[C@H]1O[C@@H](n2cc(F)c3c(-c4ccccc4)ncnc32)[C@H](O)[C@@H]1O` showed an IC50 of 74.8 µM. Compound `OC[C@H]1O[C@@H](n2cc(F)c3c(-c4ccc[nH]4)ncnc32)[C@H](O)[C@@H]1O` has an IC50 of 45.8 µM. In the case of `OC[C@H]1O[C@@H](n2cc(Cl)c3c(-c4cccs4)ncnc32)[C@H](O)[C@@H]1O`, the IC50 is reported as 96.4 µM. Work on `OC[C@H]1O[C@@H](n2cc(Cl)c3c(-c4ccco4)ncnc32)[C@H](O)[C@@H]1O` yielded an IC50 of 89.2 µM. `OC[C@H]1O[C@@H](n2ccc3c(-c4ccccc4)ncnc32)[C@H](O)[C@@H]1O` was tested, and the IC50 was 75.2 µM. In the case of `OC[C@H]1O[C@@H](n2ccc3c(-c4cccs4)ncnc32)[C@H](O)[C@@H]1O`, the IC50 is reported as greater than 100 µM.
